The source of these data is patent US20230406831A1, “COMPOUNDS AND METHODS OF INHIBITING BACTERIAL CHAPERONIN SYSTEMS” (THE TRUSTEES OF INDIANA UNIVERSITY, priority 2020, published 2023).

One experiment addresses T1, native MDH (Sus scrofa, UniProt P00346).
T1 construct: soluble pig heart MDH from Roche, product #10127248001; purchased Roche 10127248001; host or cells: pig heart
T1 sequence (P00346 25-338): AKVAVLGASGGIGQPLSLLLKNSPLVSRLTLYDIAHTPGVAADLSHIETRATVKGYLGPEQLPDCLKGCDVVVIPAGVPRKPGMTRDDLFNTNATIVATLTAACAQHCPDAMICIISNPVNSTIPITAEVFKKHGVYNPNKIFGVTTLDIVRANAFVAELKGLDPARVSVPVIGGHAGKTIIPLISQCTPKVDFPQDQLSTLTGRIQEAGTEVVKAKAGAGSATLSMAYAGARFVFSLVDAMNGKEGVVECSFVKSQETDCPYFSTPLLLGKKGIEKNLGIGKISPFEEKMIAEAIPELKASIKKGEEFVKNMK
Kind of experiment: Native MDH enzymatic activity counter-screen. Format: biochemical, pig. As to conditions: compounds added after refolding and EDTA quench, read-out: Biochemical Assay IC50 Native MDH Activity. On the procedure: Counter-screening compounds for inhibition of native MDH enzymatic activity.
Reagent Preparations & Assay Protocol: This assay was performed as described above for the GroEL/ES-dMDH refolding assay; however, the assay protocol differed in the sequence of compound addition to the assay plates. The refolding reactions were allowed to proceed for 45 min at 37° C. in the absence of test compounds (complete refolding of MDH occurs), then quenched with the EDTA stock. Compounds were then pin-transferred into the plates after the EDTA quenching step; thus, compounds effects are only possible by inhibiting the fully-refolded MDH reporter substrate. Next enzymatic activity of the refolded MDH was initiated by addition of 20 μL MDH enzymatic assay stock (20 mM sodium mesoxalate and 2.4 mM NADH in reaction buffer, 50 mM Tris pH 7.4, 50 mM KCl, 1 mM DTT), and followed by measuring the NADH absorbance in each well at 340 nm using a Molecular Devices SpectraMax Plus384 microplate reader
A340 nm measurements were recorded at 0.5 minutes (start point) and at successive time points until the amount of NADH consumed reached ˜90% (end point, generally between 20-35 minutes). Compounds were tested in 8-point, 3-fold dilution series (62.5 μM to 29 nM during the reporter reaction) in clear, flat-bottom 384-well microtiter plates.
DMSO was used as a negative control, and previously discovered native MDH inhibitors were used as positive controls. IC50 values for the test compounds were obtained by plotting the % inhibition results in GraphPad Prism 6 and analyzing by non-linear regression using the log (inhibitor) vs. response (variable slope) equation. Results presented represent the averages of IC50 values obtained from at least quadriplicate (duplicate of duplicate) replicates.
For orientation: A counterscreen serves to expose hits that act by an unwanted route or on another target.

A further experiment addresses T2, GroEL/ES (Escherichia coli, UniProt P0A6F5).
T2 construct: made in house; host or cells: GroEL in E. coli DH5a; GroES in E. coli BL21 (DE3)
Kind of experiment: GroEL/ES-mediated dMDH refolding assay. Format: biochemical, E. coli. On the procedure: (§1) Evaluation of compounds ability to inhibit GroEL/ES and HSP60/10-mediated dMDH refolding assays.
(§2) Reagent preparation: For these assays, four primary reagent stocks were prepared: 1) GroEL/ES-dMDH or HSP60/10-dMDH binary complex stock; 2) ATP initiation stock; 3) EDTA quench stock; 4) MDH enzymatic assay stock. Denatured MDH (dMDH) was prepared by 2-fold dilution of MDH (5 mg/ml, soluble pig heart MDH from Roche, product #10127248001) with denaturant buffer (7 M guanidine-HCl, 200 mM Tris, pH 7.4, and 50 mM DTT). MDH was completely denatured by incubating at room temperature for 45 min. The binary complex solutions were prepared by slowly adding the dMDH stock to a stirring stock with GroEL (or HSP60) in folding buffer (50 mM Tris-HCl, pH 7.4, 50 mM KCl, 10 mM MglC2, and 1 mM DTT), followed by addition of GroES (or HSP10). The binary complex stocks were prepared immediately prior to dispensing into the assay plates and had final protein concentrations of 83.3 nM GroEL (Mr 800 kDa) or HSP60 (Mr 400 kDa), 100 nM GroES or HSP10 (Mr 70 kDa), and 20 nM dMDH in folding buffer. For the ATP initiation stock, ATP solid was diluted into folding buffer to a final concentration of 2.5 mM. Quench solution contained 600 mM EDTA (pH 8.0). The MDH enzymatic assay stock consisted of 20 mM sodium mesoxalate and 2.4 mM NADH in reaction buffer (50 mM Tris-HCl, pH 7.4, 50 mM KC1, and 1 mM DTT).
(§3) Assay Protocol: First, 30 μL aliquots of the GroEL/ES-dMDH or HSP60/10-dMDH binary complex stocks were dispensed into clear, 384-well polystyrene plates. Next, 0.5 μL of the compound stocks (10 mM to 4.6 μM, 3-fold dilutions series in DMSO) were added by pin-transfer (V&P Scientific). The chaperonin-mediated refolding cycles were initiated by addition of 20 IA of ATP stock (reagent concentrations during refolding cycle: 50 nM GroEL or HSP60, 60 nM GroES or HSP10, 12 nM dMDH, 1 mM ATP, and compounds of 100 μM to 46 nM, 3-fold dilution series). The refolding reactions were incubated at 37° C. The incubation time was determined from refolding time-course control experiments until they reached ˜90% completion of refolding cycle — generally ˜20-40 min for GroEL/ES, and ˜40-60 min for HSP60/10). Next, the assay was quenched by addition of 10 μL of the EDTA to final concentration of 100 mM. […] A340 nm measurements were recorded at 0.5 minutes (start point) and at successive time points until the amount of NADH consumed reached ˜90% (end point, generally between 20-35 minutes). The differences between the start and end point A340 values were used to calculate the % inhibition of the GroEL/ES or HSP60/10 machinery by the compounds. IC50 values for the test compounds were obtained by plotting the % inhibition results in GraphPad Prism 6 and analyzing by non-linear regression using the log (inhibitor) vs. response (variable slope) equation. Results presented represent the averages of IC50 values obtained from at least quadriplicate (duplicate of duplicate) replicates. For results, see Tables 1, 2, and 3.

Another experiment has as its target T3, HSP60/10 (Homo sapiens, UniProt P10809).
T3 construct: octa-Histidine (His8) tag, TEV-cleavable (N, cleaved yes); made in house; host or cells: HSP60 in Rosetta 2 (DE3) E. coli; HSP10 in Rosetta 2 (DE3) pLysS
Kind of experiment: HSP60/10-mediated dMDH refolding assay. The following applies: 37° C., 1 mM ATP, read-out: Biochemical Assay IC50 HSP60/10-dMDH Refolding. It counts as biochemical. Here is the method:
as §1, §2, §3

Like-named read-outs stand apart in the source and are kept apart here. Bounds are passed on as bounds.

T3 sequence (P10809 27-573): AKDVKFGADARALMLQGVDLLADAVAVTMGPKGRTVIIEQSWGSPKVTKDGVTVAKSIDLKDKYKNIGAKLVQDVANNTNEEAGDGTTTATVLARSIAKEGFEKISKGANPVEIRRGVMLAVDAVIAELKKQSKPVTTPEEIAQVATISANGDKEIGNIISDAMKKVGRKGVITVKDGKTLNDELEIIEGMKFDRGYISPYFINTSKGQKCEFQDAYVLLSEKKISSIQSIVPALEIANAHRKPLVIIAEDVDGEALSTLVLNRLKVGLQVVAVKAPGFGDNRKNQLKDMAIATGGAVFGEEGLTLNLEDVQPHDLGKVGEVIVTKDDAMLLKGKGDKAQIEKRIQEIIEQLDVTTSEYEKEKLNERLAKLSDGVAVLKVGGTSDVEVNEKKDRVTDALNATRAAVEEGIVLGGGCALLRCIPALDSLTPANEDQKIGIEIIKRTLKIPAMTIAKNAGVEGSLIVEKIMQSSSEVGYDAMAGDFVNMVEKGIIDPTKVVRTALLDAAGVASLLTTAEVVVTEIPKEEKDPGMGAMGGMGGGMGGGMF
T2 sequence (P0A6F5 2-548): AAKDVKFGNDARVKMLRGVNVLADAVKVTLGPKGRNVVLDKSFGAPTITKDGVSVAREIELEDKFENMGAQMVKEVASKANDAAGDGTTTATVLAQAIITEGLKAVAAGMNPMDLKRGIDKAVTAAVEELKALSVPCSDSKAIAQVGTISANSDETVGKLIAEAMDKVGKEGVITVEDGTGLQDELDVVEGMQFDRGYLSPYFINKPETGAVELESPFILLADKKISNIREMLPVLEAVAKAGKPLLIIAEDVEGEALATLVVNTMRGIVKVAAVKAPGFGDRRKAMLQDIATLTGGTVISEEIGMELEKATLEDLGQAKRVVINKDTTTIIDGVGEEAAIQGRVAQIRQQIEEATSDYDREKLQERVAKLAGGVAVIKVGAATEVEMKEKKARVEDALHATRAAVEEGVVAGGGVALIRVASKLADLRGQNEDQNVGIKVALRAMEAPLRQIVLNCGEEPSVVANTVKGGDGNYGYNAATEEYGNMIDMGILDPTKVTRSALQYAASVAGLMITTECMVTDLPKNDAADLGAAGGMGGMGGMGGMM

Consider `Cc1cc(C(C#N)c2ccc(Cl)cc2)c(Cl)cc1NC(=O)c1ccc(Cl)cc1O` (stereo not drawn) [Compound 56, 4-chloro-N-(5-chloro-4-((4-chlorophenyl)(cyano)methyl)-2-methylphenyl)-2-hydroxybenzamide], for which the IC50 turned out to be 59 µM at native MDH (Table 2), 57 µM on GroEL/ES and 17 µM at HSP60/10 (Table 2).

Consider `COc1ccc(Br)cc1C(=O)Nc1cc(Cl)c(C(C#N)c2ccc(Cl)cc2)cc1C` (stereo not drawn) [Compound 49, 5-bromo-N-(5-chloro-4-((4-chlorophenyl)(cyano)methyl)-2-methylphenyl)-2-methoxybenzamide], for which the values for the IC50 on native MDH (Table 2), at GroEL/ES and at HSP60/10 (Table 2) were more than 63 µM, 71 µM and more than 100 µM, respectively.

In the case of `COc1ccc(Cl)cc1C(=O)Nc1ccc(OCc2ccccc2)cc1` [Compound 102, N-(4-(benzyloxy)phenyl)-5-chloro-2-methoxybenzamide], the results for the IC50 at native MDH (Table 3), at GroEL/ES and on HSP60/10 (Table 3) were more than 63 µM, more than 100 µM and more than 100 µM, respectively.

For `COc1cccc(C(=O)Nc2cc(Cl)c(C(C#N)c3ccc(Cl)cc3)cc2C)c1` (stereo not drawn) [Compound 62, N-(5-chloro-4-((4-chlorophenyl)(cyano)methyl)-2-methylphenyl)-3-methoxybenzamide], the figures for the IC50 at native MDH (Table 2), at GroEL/ES and at HSP60/10 (Table 2) were more than 63 µM, 67 µM and more than 100 µM, respectively.

As for `COc1ccc(Cl)cc1C(=O)Nc1ccc(Oc2ccccc2)cc1` [Compound 92, 5-chloro-2-methoxy-N-(4-phenoxyphenyl)benzamide], the results for the IC50 on native MDH (Table 3), at GroEL/ES and at HSP60/10 (Table 3) were more than 63 µM, more than 100 µM and more than 100 µM, respectively.

As for `COc1ccccc1C(=O)Nc1cc(Cl)c(C(C#N)c2ccc(Cl)cc2)cc1C` (stereo not drawn) [Compound 61, N-(5-chloro-4-((4-chlorophenyl)(cyano)methyl)-2-methylphenyl)-2-methoxybenzamide], the IC50 on native MDH (Table 2) is more than 63 µM; at GroEL/ES, 72 µM; on HSP60/10 (Table 2) it was more than 100 µM.

In the case of `Cc1cc(C(C#N)c2ccc(Cl)cc2)c(Cl)cc1NC(=O)c1cccc([N+](=O)[O-])c1` (stereo not drawn) [Compound 68, N-(5-chloro-4-((4-chlorophenyl)(cyano)methyl)-2-methylphenyl)-3-nitrobenzamide], the IC50 at native MDH (Table 2) is more than 63 µM; on GroEL/ES, 43 µM; at HSP60/10 (Table 2), more than 100 µM.

For the compound `COc1ccc(NC(=O)c2cc(Cl)ccc2O)cc1` [Compound 113, 5-chloro-2-hydroxy-N-(4-methoxyphenyl)benzamide], the IC50 at native MDH (Table 3) is more than 63 µM; against GroEL/ES, more than 100 µM; at HSP60/10 (Table 3), more than 100 µM.

In the case of `O=C(Nc1ccc(Oc2ccc(Cl)cc2)c(Cl)c1)c1cc(Cl)ccc1O` [Compound 87, 5-chloro-N-(3-chloro-4-(4-chlorophenoxy)phenyl)-2-hydroxybenzamide], the IC50 was more than 63 µM at native MDH (Table 3), 30 µM on GroEL/ES and 9.5 µM at HSP60/10 (Table 3).

For the compound `Cc1cc(C(C#N)c2ccc(Cl)cc2)c(Cl)cc1NC(=O)c1ccccc1Br` (stereo not drawn) [Compound 73, 2-bromo-N-(5-chloro-4-((4-chlorophenyl)(cyano)methyl)-2-methylphenyl)benzamide], the IC50 is more than 63 µM on native MDH (Table 2), 53 µM against GroEL/ES and more than 100 µM on HSP60/10 (Table 2).

For `COc1ccc(NC(=O)c2cc(Cl)ccc2OC)cc1` [Compound 112, 5-chloro-2-methoxy-N-(4-methoxyphenyl)benzamide], the IC50 is more than 63 µM on native MDH (Table 3), more than 100 µM at GroEL/ES and more than 100 µM on HSP60/10 (Table 3).

In the case of `COc1ccc(Cl)cc1C(=O)Nc1ccc(CC#N)cc1` [Compound 110, 5-chloro-N-(4-(cyanomethyl)phenyl)-2-methoxybenzamide], the IC50 on native MDH (Table 3) was more than 63 µM; on GroEL/ES it was 54 µM; on HSP60/10 (Table 3) it was more than 100 µM.

For the compound `O=C(Nc1ccc(Sc2nc3ccccc3s2)c(Cl)c1)c1cc(Cl)ccc1O` [Compound 95, N-(4-(benzo[d]thiazol-2-ylthio)-3-chlorophenyl)-5-chloro-2-hydroxybenzamide], the figures for the IC50 on native MDH (Table 3), on GroEL/ES and at HSP60/10 (Table 3) were more than 63 µM, 21 µM and 39 µM, respectively.

Turning to `Cc1cc(C(C#N)c2ccc(Cl)cc2)c(Cl)cc1NC(=O)c1ccccc1` (stereo not drawn) [Compound 82, N-(5-chloro-4-((4-chlorophenyl)(cyano)methyl)-2-methylphenyl)benzamide], the results for the IC50 at native MDH (Table 2), at GroEL/ES and at HSP60/10 (Table 2) were more than 63 µM, 74 µM and more than 100 µM, respectively.

Consider `COC(=O)c1ccc(NC(=O)c2cc(Cl)ccc2O)cc1` [Compound 107, methyl 4-(5-chloro-2-hydroxybenzamido)benzoate], for which the IC50 is more than 63 µM at native MDH (Table 3), 83 µM against GroEL/ES and more than 100 µM on HSP60/10 (Table 3).

For the compound `Cc1cc(C(C#N)c2ccc(Cl)cc2)c(Cl)cc1NC(=O)c1cc(Br)ccc1O` (stereo not drawn) [Compound 50, 5-bromo-N-(5-chloro-4-((4-chlorophenyl)(cyano)methyl)-2-methylphenyl)-2-hydroxybenzamide], the IC50 at native MDH (Table 2) amounted to 55 µM; at GroEL/ES it was 23 µM; on HSP60/10 (Table 2), 20 µM.

Take `COc1ccc(C)cc1C(=O)Nc1cc(Cl)c(C(C#N)c2ccc(Cl)cc2)cc1C` (stereo not drawn) [Compound 59, N-(5-chloro-4-((4-chlorophenyl)(cyano)methyl)-2-methylphenyl)-2-methoxy-5-methylbenzamide]: the IC50 at native MDH (Table 2) is more than 63 µM; against GroEL/ES, 86 µM; at HSP60/10 (Table 2) it was more than 100 µM.
